Values of other authors as cited in patent US20080153167A1, “In vivo amplification of neural progenitor cells” (priority 2006, published 2008).

Test system: PDGF driven tumors
Conditions: Shih et al. 2004

## Clc1ccc(Nc2nnc(Cc3ccncc3)c3ccccc23)cc1 [PTK787]
  effect on PDGF driven tumors: caused high-grade tumors to acquire low-grade histology, but it did not completely eradicate tumor growth
